Source: patent EP1285918A1, “C7 Ester substituted taxanes as antitumor agents” (Florida State University Research Foundation, Inc., priority 2001, dated 2003)
Where two headings read alike, the source gives them in different places.

How the values were obtained:
[1] = system: VM46 Human Colon Carcinoma Xenografts; settings: 6 mice/group
Method: (§1) Other antitumor compounds were similarly formulated. […] The dosing volume was 0.3 mL per 20 g mouse.
(§2) Female NCr-nude mice (6-8 weeks of age, implanted subcutaneously with 1 mm^3 VM46 colon carcinoma fragments in the flank) were sorted into treatment groups of six mice each. […] Dosing was initiated on Day 1. The antitumor compounds were given i.v. at an estimated maximum tolerated dose (MTD) appropriate for each agent on a qd x 1 schedule (single administration of compound). […] Taxotere was given i.v. at a dose of 70 mg/kg on a qd x 1 schedule. The vehicle was given i.v. to control mice in Group 1 in each test on Day 1 (qd x 1) schedule. Treatment groups are detailed in Table 13. The VM46 study ended on Day 64.
(§3) The results are summarized in table 14 and include mean days of survival (MDS), number of toxic deaths, number of survivors, number of complete or partial responses, and number with stable disease. The mean days of survival is the number of days after which a neoplasm reached a size of 1.5 g and the animal was euthanized. A complete response is obtained if the tumor is not palpable at the end of the study. A partial response is obtained if the tumor shrinks to a size smaller than its size on Day 1 of the study. […]

[2] = system: A375 Human Melanoma Xenografts; settings: A375, i.v. qd x 1 (mg/kg: Taxol 24, 1351 107.6, 1393 72.6, 1401 107.6, 1418 107.6, 1424 195.1, Taxotere 70)
Method: (§4) Other antitumor compounds were similarly formulated. […] The dosing volume was 0.3 ml per 20 g mouse.
Female NCr-nude mice (implanted subcutaneously with 1 mm^3 A375 melanoma in the flank) were sorted into treatment groups of six mice each, except for the Taxotere group having seven mice each. […] Dosing was initiated on Day 1. The antitumor compounds were given i.v. at an estimated maximum tolerated dose (MTD) appropriate for each agent on a qd x 1 schedule (single administration of compound). […] Taxotere was given i.v. on a qd x 1 schedule at a dose of 70 mg/kg. The vehicle was administered i.v. to control mice in Group 1 on the qd x 1 schedule. Treatment groups are detailed in Table 9. The study was terminated on Day 60.
as §3, with “Table 10” for “table 14”, “tumor” for “neoplasm”, “2.0” for “1.5”

[3] = system: DU 145 Human Prostate Carcinoma Xenografts; settings: DU145, i.v. qd x 1 (mg/kg: Taxol 24, 1351 107.6, 1393 72.6, 1401 107.6, 1418 107.6, 1424 195.1)
Method: as §4
Male NCr-nude mice (implanted subcutaneously with 1 mm^3 DU145 prostate carcinoma fragments in the flank) were sorted into treatment groups of five mice each. […] Dosing was initiated on Day 1. The antitumor compounds were given i.v. at an estimated maximum tolerated dose (MTD) appropriate for each agent on a qd x 1 schedule (single administration of compound). […] The vehicle was administered i.v. to control mice in Group 1 on the qd x 1 schedule. The study was terminated on Day 91. Treatment groups are detailed in Table 5.
The mean days of survival is the number of days after which a neoplasm reached a size of 1.5 g and the animal was euthanized. A complete response is obtained if the tumor is not palpable at the end of the study. A partial response is obtained if the tumor shrinks to a size smaller than its size on Day 1 of the study. […]

[4] = system: Panc-1 Human Pancreatic Carcinoma Xenografts; settings: i.v. qd x 1 at estimated MTD; 6 mice/group; study end Day 63
Method: as §1
as §2, with “Panc-1 pancreatic” for “VM46 colon”, “12.” for “13.”, “The” for “The VM46”, “was terminated” for “ended”, “63.” for “64.”
The mean days of survival is the number of days after which a neoplasm reached a size of 1.5 g and the animal was euthanized. A complete response is obtained if the tumor is not palpable at the end of the study. A partial response is obtained if the tumor shrinks to a size smaller than its size on Day 1 of the study.

[5] = system: MX-1 Human Breast Carcinoma Xenograft; assay: In vivo evaluation of oral administration of antitumor compounds against MX-1 human breast carcinoma xenograft (Example 25); settings: for Maximum Weight Loss (Day) / Partial Response / Stable Disease / Toxic Deaths / Mean Day of Survival (n): 6 mice/group; for Maximum Weight Loss (Day): on Day 5; for Partial Response / Stable Disease / Toxic Deaths / Mean Day of Survival (n): study end Day 63; for Mean Day of Survival (n): days until tumor reached 1.5 g; for survival compared to vehicle control mice: MX-1, single oral bolus, doses of Table 22, Day 63; for Complete Response: po, 1512 h
From the text: This study investigated the efficacy of various antitumor compounds when administered orally against the MX-1 human breast carcinoma xenograft.
(§5) The study was terminated on Day 63.

blood cell populations = assay: Effect of oral treatment on blood cell populations, body weight and tumor weight in MX-1 bearing mice (Example 25, Table 23); type: in vivo, nu/nu mice; settings: for Weight: tumor weight at Day 18
Method: as §5
In addition to survival and tumor regression responses, the effect of treatment on blood cell populations was assessed. The major effect of these antitumor compounds on blood cell populations was a marked reduction in the neutrophil cell number. As well, monocyte depletion correlated fairly well with neutrophil reduction for each antitumor compound. […] There was a correlation between antitumor activity and reduced neutrophil count. In general, toxicity (as determined by neutrophil depletion) and weight loss correlated with efficacy. Importantly, the toxicities observed with the very efficacious antitumor compounds were manageable and reversible; neutrophil count and body weight rebounded from their low points in just a few days. Table 23 summarizes the weight reduction, neutrophil and monocyte measurements on Day 4, with tumor weight reduction calculated at Day 18: Table 23

HCT116 = assay: In Vitro cytotoxicity measured by the cell colony formation assay; type: cell-based; settings: Homo sapiens, HCT-116; 72 h drug incubation, colonies counted after 7 days; concentration producing 50% inhibition of colony formation; read-out: IN VITRO ID 50 (nm) HCT116
Method: In Vitro cytotoxicity measured by the cell colony formation assay
Four hundred cells (HCT116) were plated in 60 mm Petri dishes containing 2.7 mL of medium (modified McCoy's 5a medium containing 10% fetal bovine serum and 100 units/mL penicillin and […] streptomycin). The cells were incubated in a CO2 incubator at 37 °C for 5 h for attachment to the bottom of Petri dishes. The compounds identified in Example 2 were made up fresh in medium at ten times the final concentration, and then 0.3 mL of this stock solution was added to the 2.7 mL of medium in the dish. The cells were then incubated with drugs for 72 h at 37 ° C. At the end of incubation the drug-containing media were decanted, the dishes were rinsed with 4 mL of Hank's Balance Salt Solution (HBSS), 5 mL of fresh medium was added, and the dishes were returned to the incubator for colony formation. The cell colonies were counted using a colony counter after incubation for 7 days. Cell survival was calculated and the values of ID50 (the drug concentration producing 50% inhibition of colony formation) were determined for each tested compound.

[6] = 195.1 mg/kg i.v. qd x 1, study end Day 64
[7] = tumor score 1 to 10, group mean
[8] = Day 4, 233 mg/kg single oral bolus
[9] = Day 4, 160 mg/kg single oral bolus

CCC(=O)O[C@H]1C[C@H]2OC[C@@]2(OC(C)=O)[C@H]2[C@H](OC(=O)c3ccccc3)[C@]3(O)C[C@H](OC(=O)[C@H](O)[C@@H](NC(=O)OC(C)(C)C)c4ccsc4)C(C)=C([C@@H](O)C(=O)[C@]12C)C3(C)C [Compound 1424]
Complete Response [1, 6]: 0 | Mean Score [1, 6]: 0.8 ± 0.4 | Partial Response [1, 6]: 0 | Stable Disease [1, 6]: 0 | Survivors [1, 6]: 0 | Toxic Deaths [1, 6]: 3 | MDS (n) ([1]; 195.1 mg/kg i.v. qd x 1, study end Day 64, days until tumor reached 1.5 g): 45.4 ± 8.1 (3) days | Toxic Deaths ([1]; VM46, i.v. qd x 1 at estimated MTD): three | MDS (n) ([2]; 2.0 g cut-off, Day 60): 30.7 ± 1.1 (2) days | Complete Response ([2]; Day 60): 0 | Partial Response ([2]; Day 60): 0 | Stable Disease ([2]; Day 60): 0 | Survivors ([2]; Day 60): 0 | Mean Score [2, 7]: 1 ± 0.6 | MDS (n) ([3]; 5 mice/group, 1.5 g cut-off, Day 91): 76.0 ± 5.4 (4) days | Complete Response ([3]; 5 mice/group, Day 91): 0 | Partial Response ([3]; 5 mice/group, Day 91): 1 | Stable Disease ([3]; 5 mice/group, Day 91): 0 | Survivors ([3]; 5 mice/group, Day 91): 1 | Toxic Deaths ([3]; 5 mice/group, Day 91): 0 | Mean Score [3, 7]: 3.6 ± 1.1 | Complete Response [4]: 0 | Mean Score [4]: 0 ± 0 | Partial Response [4]: 0 | Stable Disease [4]: 0 | Survivors [4]: 0 | Toxic Deaths [4]: 6

CCC(=O)O[C@H]1C[C@H]2OC[C@@]2(OC(C)=O)[C@H]2[C@H](OC(=O)c3ccccc3)[C@]3(O)C[C@H](OC(=O)[C@H](O)[C@@H](NC(=O)OC(C)(C)C)c4ccccc4)C(C)=C([C@@H](O)C(=O)[C@]12C)C3(C)C [Compound 1458]
Maximum Weight Loss (Day) ([5]; 233 mg/kg single oral bolus): -5.8% (5) | Partial Response ([5]; 233 mg/kg single oral bolus): 0 | Stable Disease ([5]; 233 mg/kg single oral bolus): 0 | Toxic Deaths ([5]; 233 mg/kg single oral bolus): 0 | Mean Day of Survival (n) ([5]; 233 mg/kg single oral bolus): 46.0 ± 1.6 (5) days | survival compared to vehicle control mice [5]: significant survival extensions | Complete Response ([5]; 233 mg/kg): 1 | Monocytes (K/µL) (blood cell populations; [8]): 0.057 K/µL | Neutrophils (K/µL) (blood cell populations; [8]): 0.232 K/µL | % Reduction (blood cell populations; reduction of monocytes, Day 4, 233 mg/kg single oral bolus): 40.6% | % Reduction (blood cell populations; reduction of neutrophils, Day 4, 233 mg/kg single oral bolus): 74.5% | % Reduction (blood cell populations; reduction of tumor weight at Day 18, 233 mg/kg single oral bolus): 97.5% | Weight (blood cell populations; 233 mg/kg single oral bolus): 21.8 mg | IC50 (HCT116): < 10 nM

CCC(=O)OC1CC2OCC2(OC(C)=O)C2C(OC(=O)c3ccccc3)C3(O)CC(OC(=O)C(O)C(NC(=O)c4ccccc4)c4ccco4)C(C)=C(C(O)C(=O)C12C)C3(C)C (stereo not shown) [Compound 4017]
Maximum Weight Loss (Day) ([5]; 160 mg/kg single oral bolus): -4.3% (5) | Partial Response ([5]; 160 mg/kg single oral bolus): 0 | Stable Disease ([5]; 160 mg/kg single oral bolus): 0 | Toxic Deaths ([5]; 160 mg/kg single oral bolus): 1 | Mean Day of Survival (n) ([5]; 160 mg/kg single oral bolus): 39.4 ± 4.6 (5) days | survival compared to vehicle control mice [5]: significant survival extensions | Complete Response ([5]; 160 mg/kg): 0 | Monocytes (K/µL) (blood cell populations; [9]): 0.073 K/µL | Neutrophils (K/µL) (blood cell populations; [9]): 0.228 K/µL | % Reduction (blood cell populations; reduction of monocytes, Day 4, 160 mg/kg single oral bolus): 24.0% | % Reduction (blood cell populations; reduction of neutrophils, Day 4, 160 mg/kg single oral bolus): 75.0% | % Reduction (blood cell populations; reduction of tumor weight at Day 18, 160 mg/kg single oral bolus): 70.5% | Weight (blood cell populations; 160 mg/kg single oral bolus): 256.5 mg | IC50 (HCT116): < 10 nM
